Source: PubChem BioAssay (NCI)
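Test compounds were applied to cells in 96-well plates for 48 hours at 5 doses. GI50 = concentration required for 50% inhibition of growth. The concentration for full growth arrest is given as TGI.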

Tests used:
Assay in all cases: inhibition of tumour cell growth, NCI panel, 48 h
SNB-19 CNS = system: SNB-19 CNS
HT29 colon = system: HT29 colon
SN12C renal = system: SN12C renal
CCRF-CEM leukemia = system: CCRF-CEM leukemia
MCF7 breast = system: MCF7 breast
MOLT-4 leukemia = system: MOLT-4 leukemia
HL-60(TB) leukemia = system: HL-60(TB) leukemia
K-562 leukemia = system: K-562 leukemia
OVCAR-4 ovarian = system: OVCAR-4 ovarian
RPMI-8226 leukemia = system: RPMI-8226 leukemia

SMILES | GI50 (SNB-19 CNS) [µM] | TGI (SNB-19 CNS) [µM] | GI50 (HT29 colon) [µM] | TGI (HT29 colon) [µM] | GI50 (SN12C renal) [µM] | TGI (SN12C renal) [µM] | GI50 (CCRF-CEM leukemia) [µM] | TGI (CCRF-CEM leukemia) [µM] | GI50 (MCF7 breast) [µM] | TGI (MCF7 breast) [µM] | GI50 (MOLT-4 leukemia) [µM] | TGI (MOLT-4 leukemia) [µM] | GI50 (HL-60(TB) leukemia) [µM] | TGI (HL-60(TB) leukemia) [µM] | GI50 (K-562 leukemia) [µM] | TGI (K-562 leukemia) [µM] | GI50 (OVCAR-4 ovarian) [µM] | TGI (OVCAR-4 ovarian) [µM] | GI50 (RPMI-8226 leukemia) [µM] | TGI (RPMI-8226 leukemia) [µM]
CCCCCCC1N=C(N)N=C(N)N1c1ccc(Cl)cc1 (configuration not stated) | 8.62 | 24.9 | 2.66 | 16.8 | 3.76 | 16.1 | 4.67 | 81.3 | 11.4 | 25.6 | 7.03 | 32.5 | 10.1 | 28.3 | 5.55 | > 100 | 14.4 | 60 | 8.62 | 30
O=C(CC1(O)C(=O)Nc2c(Cl)ccc(Cl)c21)c1ccc(C2CC2)cc1 (configuration not stated) | 1.13 | 16.9 | 0.586 | 2.22 | 2.66 | 20.4 | 0.843 | 20.1 | 0.322 | 14.5 | 1.19 | 18.1 | 0.318 | 10.3 | 0.152 | – | 12.8 | 32.2 | 0.87 | 16.5
CC(=O)N[C@@H](Cc1ccc(OP(=O)(O)O)cc1)C(=O)N[C@H]1CCC(=O)N2CCC[C@@H](C(=O)NCc3ccc(O)cc3)N2C1=O | > 25 | > 25 | > 25 | > 25 | > 25 | > 25 | > 25 | > 25 | > 25 | > 25 | > 25 | > 25 | > 25 | > 25 | > 25 | > 25 | > 25 | > 25 | > 25 | > 25
COc1ccc(NC(=O)O[C@H]2[C@H](O[C@H]3[C@@H](O)COC(O[C@H]4C[C@H]5[C@@H]6CC=C7C[C@@H](O)CC[C@]7(C)[C@H]6CC[C@]5(C)[C@H]4[C@H](C)C(=O)CCC(C)C)[C@@H]3OC(C)=O)OC[C@@H](O)[C@@H]2O)cc1 (some centres not stated) | 0.0189 | 3.36 | 0.0242 | 15.5 | 11.4 | > 100 | < 0.01 | 2.25 | < 0.01 | 1.47 | < 0.01 | 0.34 | 0.0139 | 28.2 | < 0.01 | 19.6 | 0.145 | > 100 | < 0.01 | 0.879
COc1cc(C2C(C#N)=C(N)Oc3cc4c(cc32)OCO4)cc2c1OCO2 (configuration not stated) | 0.709 | > 100 | 0.324 | > 59.7 | 0.599 | > 100 | 0.318 | > 100 | 0.187 | > 75 | 0.935 | 49.5 | 0.219 | 0.715 | 0.068 | > 100 | 0.931 | > 100 | 0.406 | > 71
COc1cc(/C=C/C(=O)c2ccc(Nc3nc(Nc4ccccc4)nc(Nc4ccc(Cl)cc4)n3)cc2)cc(OC)c1OC | > 32.5 | > 32.5 | 5.39 | > 32.5 | 20.9 | > 32.5 | 4.12 | > 32.5 | 2.02 | > 32.5 | 2.65 | > 32.5 | 1.18 | 11.3 | 4.18 | > 32.5 | 14 | > 32.5 | 2.21 | 20.9
CC(C)N(C[C@H]1O[C@@H](n2cnc3c(N)ncnc32)[C@H](O)[C@@H]1O)C1CC(CCc2nc3ccc(C(C)(C)C)cc3[nH]2)C1 (some centres not stated) | > 100 | > 100 | 94.8 | > 100 | > 100 | > 100 | > 49.3 | > 84.4 | 33.2 | > 100 | 30.9 | > 81.3 | > 65.9 | > 100 | 33.4 | > 75.3 | 74.1 | > 100 | 46 | > 100
CCN(CC)c1ccc2nc3c4ccccc4c(=NC(=O)c4ccccc4-c4c5ccc(N(CC)CC)cc5[o+]c5cc(N(CC)CC)ccc45)cc-3oc2c1 | 2.3 | 6.64 | 2.73 | > 32.2 | 2.13 | 6.14 | 2.1 | 13.4 | 1.59 | – | 1.81 | > 100 | 2.96 | > 100 | – | > 100 | 1.25 | 2.67 | 0.722 | 4.2
CC(C)CNc1nc(N=[N+]=[N-])nc(NCC(C)C)n1 | > 10 | > 10 | > 10 | > 10 | > 10 | > 10 | > 10 | > 10 | > 10 | > 10 | > 10 | > 10 | > 10 | > 10 | > 10 | > 10 | > 10 | > 10 | > 10 | > 10
